Earlier results on one compound are cited in patent US10610528B2, “Solid oral film dosage forms and methods for making same” (Intelgenx Corp., priority 2009, dated 2020).

On to `CN1CC(=O)N2[C@H](c3ccc4c(c3)OCO4)c3[nH]c4ccccc4c3C[C@@H]2C1=O` [Tadalafil], for which the Solubility in water result is “practically insoluble in water”.
